Like-named read-outs stand apart in the source and are kept apart here.
Tests used:
Type in all cases: cell-based
[1] = test system: SkBr3 (Her2 overexpressing breast cancer cells); experiment: Anti-proliferation activity against SkBr3 cells (MTS/PMS); settings: Homo sapiens, SK-BR-3
How it was run: (§1)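 Cells seeded at 2000/well, attached overnight, then exposed to compound at varying concentrations (1% DMSO final) for 72 hours at 37° C. Viable cells read by MTS/PMS, normalised to 1% DMSO as 100% proliferation. IC50 from separate triplicate experiments.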

[2] = test system: MCF-7 (estrogen receptor positive breast cancer cells); experiment: Anti-proliferation activity against MCF-7 cells (MTS/PMS); settings: Homo sapiens, MCF7, read-out: IC50 MCF-7
How it was run: as §1

[3] = test system: LN3 (metastatic human prostate cancer cells); experiment: Anti-proliferation activity against LN3 cells (MTS/PMS); settings: Homo sapiens; Table 12, aliphatic chain analogues; 72 hours
Protocol: (§2) Cells were maintained in a 1:1 mixture of Advanced DMEM/F12 (Gibco) supplemented with non-essential amino acids, L-glutamine (2 mM), streptomycin (500 μg/mL), penicillin (100 units/mL), and 10% FBS. Cells were grown to confluence in a humidified atmosphere (37° C., 5% CO2), seeded (2000/well, 100 μL) in 96-well plates, and allowed to attach overnight. Compound or GDA at varying concentrations in DMSO (1% DMSO final concentration) was added, and cells were returned to the incubator for 72 hours. At 72 hours, the number of viable cells was determined using an MTS/PMS cell proliferation kit (Promega) per the manufacturer's instructions. Cells incubated in 1% DMSO were used at 100% proliferation, and values were adjusted accordingly. IC50 values were calculated from separate experiments performed in triplicate using GraphPad Prism.

[4] = test system: MM2 (metastatic mammary tumor cancer cells); experiment: Anti-proliferation activity against MM2 cells (MTS/PMS); settings: Table 12, aliphatic chain analogues; 72 hours
Protocol: as §2

[5] = test system: A549 (human alveolar basal epithelial cells); experiment: Anti-proliferation activity against A549 cells (MTS/PMS); settings: Homo sapiens, A549; Table 12, aliphatic chain analogues; 72 hours
Protocol: as §2

[6] = test system: HCT-116 (colon cancer cells characterized by wild-type p53); experiment: Anti-proliferation activity against HCT-116 cells; settings: Homo sapiens, n = 3
Protocol: (§3) Upon completion of synthesis of library of compounds in Examples 23 and 24, the compounds were evaluated for anti-proliferative activity against SkBr3 (Her2 overexpressing breast cancer cells), MCF-7 (estrogen receptor positive breast cancer cells), HCT-116 (colon cancer cells characterized by wild-type p53), PL45 (pancreatic cancer cells), LNCaP (androgen sensitive prostate cancer cells) and PC-3 (androgen independent prostate cancer cells) cell lines. […] The monosubstituted benzamide variants improved activity.

[7] = test system: PL45 (pancreatic cancer cells); experiment: Anti-proliferation activity against PL45 cells; settings: n = 3
Protocol: as §3

[8] = test system: LNCaP (androgen sensitive prostate cancer cells); experiment: Anti-proliferation activity against LNCaP cells; settings: Homo sapiens, LNCaP, n = 3, read-out: IC50 LNCaP
How it was run: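 Cells seeded at 2000/well in Advanced DMEM/F12 with 10% FBS and attached overnight, then given compound in 1% DMSO final for 72 h at 37 °C, 5% CO2. Viable cells by MTS/PMS read-out, normalised to 1% DMSO as 100% proliferation. IC50 from separate triplicate experiments.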

[9] = test system: PC-3 (androgen independent prostate cancer cells); experiment: Anti-proliferation activity against PC-3 cells; settings: Homo sapiens, PC-3, n = 3, read-out: IC50 PC-3
How it was run: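 Antiproliferative activity was tested in PC-3 androgen-independent prostate cancer cells. Cells grown at 37° C. with 5% CO2 in Advanced DMEM/F12 (1:1) containing non-essential amino acids, 2 mM L-glutamine, streptomycin, penicillin and 10% FBS were plated at 2000/well in 96-well plates. Proliferation was normalized to 1% DMSO controls, and IC50 values from triplicate experiments were fitted in GraphPad Prism.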

[10] = Table 12, aliphatic chain analogues, 72 hours, read-out: IC50 SKBr3
[11] = Table 12, aliphatic chain analogues, 72 hours
[12] = Table 4, biaryl analogues, n = 3, read-out: IC50 SkBr3
[13] = Table 4, biaryl analogues, n = 3
[14] = Table 5, heterocyclic analogues, n = 3, read-out: IC50 SkBr3
[15] = Table 5, heterocyclic analogues, n = 3
[16] = Table 5, heterocyclic analogues

| IC50 [1, 12] [µM] | IC50 [2, 13] [µM] | IC50 ([6]; Table 4, biaryl analogues) [µM] | IC50 ([7]; Table 4, biaryl analogues) [µM] | IC50 ([8]; Table 4, biaryl analogues) [µM] | IC50 ([9]; Table 4, biaryl analogues) [µM] | IC50 [1, 14] [µM] | IC50 [2, 15] [µM] | IC50 [6, 16] [µM] | IC50 [7, 16] [µM] | IC50 [8, 16] [µM] | IC50 [9, 16] [µM] | also measured | Structure (SMILES) |
| --- | --- | --- | --- | --- | --- | --- | --- | --- | --- | --- | --- | --- | --- |
| – | – | – | – | – | – | – | – | – | – | – | – | IC50 [1, 10]: 1.77 ± 0.15 µM; IC50 [2, 11]: 3.08 ± 0.12 µM; IC50 [3]: 5.22 µM; IC50 [4]: 6.2 µM; IC50 [5]: 8.8 µM | COc1cccc(-c2cc(C(=O)Nc3cc4ccc(OCCN(C)C)c(OC)c4oc3=O)ccc2OC)c1 [KU-292] |
| – | – | – | – | – | – | – | – | – | – | – | – | IC50 [1, 10]: 1.42 ± 0.26 µM; IC50 [2, 11]: 1.29 ± 0.21 µM; IC50 [3]: 4.71 µM; IC50 [4]: 4.87 µM; IC50 [5]: 2.21 µM | COc1cccc(-c2cc(C(=O)Nc3cc4cc(OC)c(OCCN(C)C)c(C)c4oc3=O)ccc2OC)c1 [KU-294] |
| 7.8 ± 0.5 | 37.9 ± 2.3 | 24 ± 0.3 | 2.6 ± 0.5 | 3.3 ± 0.6 | 44 ± 20.3 | – | – | – | – | – | – | – | COc1ccc(-c2cc(C(=O)Nc3cc4ccc(O[C@@H]5OC(C)(C)[C@H](OC)[C@@H](O)[C@H]5O)c(C)c4oc3=O)ccc2OC)cc1 [compound 34, N-(7-((2R,3R,4S,5R)-3,4-Dihydroxy-5-methoxy-6,6-dimethyltetrahydro-2H-pyran-2-yloxy)-8-methyl-2-oxo-2H-chromen-3-yl)-4′,6-dimethoxybiphenyl-3-carboxamide] |
| 2.9 ± 1.2 | 5.3 ± 1.5 | 4.5 ± 1.2 | 1.1 | 2.5 ± 1.2 | 14.7 ± 2.4 | – | – | – | – | – | – | – | COc1ccc(C(=O)Nc2cc3ccc(O[C@@H]4OC(C)(C)[C@H](OC)[C@@H](O)[C@H]4O)c(C)c3oc2=O)cc1-c1cccc(O)c1 [compound 36, N-(7-((2R,3R,4S,5R)-3,4-Dihydroxy-5-methoxy-6,6-dimethyltetrahydro-2H-pyran-2-yloxy)-8-methyl-2-oxo-2H-chromen-3-yl)-3′-hydroxy-6-methoxybiphenyl-3-carboxamide] |
| 1.6 ± 0.2 | 2.3 ± 0.8 | 1.4 ± 0.1 | 1.9 ± 0.8 | 2.6 ± 0.5 | 22.3 ± 3.6 | – | – | – | – | – | – | – | COc1ccc(C(=O)Nc2cc3ccc(O[C@@H]4OC(C)(C)[C@H](OC)[C@@H](O)[C@H]4O)c(C)c3oc2=O)cc1-c1ccc(O)cc1 [compound 37, N-(7-((2R,3R,4S,5R)-3,4-Dihydroxy-5-methoxy-6,6-dimethyltetrahydro-2H-pyran-2-yloxy)-8-methyl-2-oxo-2H-chromen-3-yl)-4′-hydroxy-6-methoxybiphenyl-3-carboxamide] |
| > 100 | > 100 | > 100 | > 100 | 8.8 ± 0.6 | 1 ± 0.1 | – | – | – | – | – | – | – | COc1ccc(C(=O)Nc2cc3ccc(O[C@@H]4OC(C)(C)[C@H](OC)[C@@H](O)[C@H]4O)c(C)c3oc2=O)cc1-c1cccc2c1Sc1ccccc1S2 [compound 38, N-(7-((2R,3R,4S,5R)-3,4-Dihydroxy-5-methoxy-6,6-dimethyltetrahydro-2H-pyran-2-yloxy)-8-methyl-2-oxo-2H-chromen-3-yl)-4-methoxy-3-(thianthren-1-yl)benzamide] |
| – | – | – | – | – | – | 28.4 ± 2 | 20.3 ± 4.1 | 23.3 ± 5.9 | 7.9 ± 0.7 | 44.9 ± 31.1 | 15.1 ± 2.1 | – | CO[C@@H]1[C@@H](O)[C@@H](O)[C@H](Oc2ccc3cc(NC(=O)c4ccccn4)c(=O)oc3c2C)OC1(C)C [compound 40, N-(7-((2R,3R,4S,5R)-3,4-Dihydroxy-5-methoxy-6,6-dimethyltetrahydro-2H-pyran-2-yloxy)-8-methyl-2-oxo-2H-chromen-3-yl)picolinamide] |
| – | – | – | – | – | – | 65.9 ± 15.8 | 47.8 ± 4.2 | 37.3 ± 1 | 13.2 ± 1 | 50.1 ± 3.3 | 67 ± 20.2 | – | CO[C@@H]1[C@@H](O)[C@@H](O)[C@H](Oc2ccc3cc(NC(=O)c4cccnc4)c(=O)oc3c2C)OC1(C)C [compound 41, N-(7-((2R,3R,4S,5R)-3,4-Dihydroxy-5-methoxy-6,6-dimethyltetrahydro-2H-pyran-2-yloxy)-8-methyl-2-oxo-2H-chromen-3-yl)nicotinamide] |
| – | – | – | – | – | – | > 100 | > 100 | > 100 | 5.2 ± 1.1 | 9.3 ± 0.6 | 10.9 ± 2.3 | – | CO[C@@H]1[C@@H](O)[C@@H](O)[C@H](Oc2ccc3cc(NC(=O)c4ccc5c(c4)OCO5)c(=O)oc3c2C)OC1(C)C [compound 45, N-(7-((2R,3R,4S,5R)-3,4-Dihydroxy-5-methoxy-6,6-dimethyltetrahydro-2H-pyran-2-yloxy)-8-methyl-2-oxo-2H-chromen-3-yl)benzo[d][1,3]dioxole-5-carboxamide] |
